Test results taken from ChEMBL document CHEMBL3994622, “Design and synthesis of new RAF kinase-inhibiting antiproliferative quinoline derivatives. Part 2: Diarylurea derivatives” (Eur J Med Chem, 2017).

Columns and labels:
Type in all cases: functional
RXF 393 [1] = assay: Growth inhibition of human RXF393 cells assessed as cell growth at 10 uM incubated for 48 hrs by sulforhodamine B assay relative to control; conditions: RXF 393, 48 h, read-out: Activity
CCRF-CEM = assay: Growth inhibition of human CCRF-CEM cells assessed as cell growth at 10 uM incubated for 48 hrs by sulforhodamine B assay relative to control; conditions: read-out: Activity
NCI-H322M = assay: Growth inhibition of human NCI-H322M cells incubated for 48 hrs by sulforhodamine B assay
RPMI-8226 = assay: Growth inhibition of human RPMI8226 cells assessed as cell growth at 10 uM incubated for 48 hrs by sulforhodamine B assay relative to control; conditions: RPMI-8226, 48 h, read-out: Activity
PC-3 = assay: Growth inhibition of human PC3 cells assessed as cell growth at 10 uM incubated for 48 hrs by sulforhodamine B assay relative to control; conditions: PC-3, 48 h, read-out: Activity
SR = assay: Growth inhibition of human SR cells incubated for 48 hrs by sulforhodamine B assay
SW-620 = assay: Growth inhibition of human SW620 cells assessed as cell growth at 10 uM incubated for 48 hrs by sulforhodamine B assay relative to control; conditions: SW-620, 48 h, read-out: Activity
UACC-62 [2] = assay: Growth inhibition of human UACC62 cells incubated for 48 hrs by sulforhodamine B assay; conditions: UACC-62, 48 h
SF-295 = assay: Growth inhibition of human SF295 cells assessed as cell growth at 10 uM incubated for 48 hrs by sulforhodamine B assay relative to control; conditions: SF-295, 48 h, read-out: Activity
LOX IMVI = assay: Growth inhibition of human LOXIMVI cells assessed as cell growth at 10 uM incubated for 48 hrs by sulforhodamine B assay relative to control; conditions: read-out: Activity
UACC-62 [3] = assay: Growth inhibition of human UACC62 cells assessed as cell growth at 10 uM incubated for 48 hrs by sulforhodamine B assay relative to control; conditions: UACC-62, 48 h, read-out: Activity
ACHN = assay: Growth inhibition of human ACHN cells assessed as cell growth at 10 uM incubated for 48 hrs by sulforhodamine B assay relative to control; conditions: read-out: Activity
MDA-MB-468 = assay: Growth inhibition of human MDA-MB-468 cells assessed as cell growth at 10 uM incubated for 48 hrs by sulforhodamine B assay relative to control; conditions: MDA-MB-468, 48 h, read-out: Activity
EKVX [4] = assay: Growth inhibition of human EKVX cells incubated for 48 hrs by sulforhodamine B assay
HT-29 = assay: Growth inhibition of human HT-29 cells assessed as cell growth at 10 uM incubated for 48 hrs by sulforhodamine B assay relative to control; conditions: HT-29, 48 h, read-out: Activity
HOP-62 = assay: Growth inhibition of human HOP62 cells assessed as cell growth at 10 uM incubated for 48 hrs by sulforhodamine B assay relative to control; conditions: HOP-62, 48 h, read-out: Activity
M14 = assay: Growth inhibition of human M14 cells assessed as cell growth at 10 uM incubated for 48 hrs by sulforhodamine B assay relative to control; conditions: M14, 48 h, read-out: Activity
KM12 [5] = assay: Growth inhibition of human KM12 cells incubated for 48 hrs by sulforhodamine B assay; conditions: KM12, 48 h
UO-31 = assay: Growth inhibition of human UO31 cells assessed as cell growth at 10 uM incubated for 48 hrs by sulforhodamine B assay relative to control; conditions: UO-31, 48 h, read-out: Activity
EKVX [6] = assay: Growth inhibition of human EKVX cells assessed as cell growth at 10 uM incubated for 48 hrs by sulforhodamine B assay relative to control; conditions: read-out: Activity
COLO 205 = assay: Growth inhibition of human COLO205 cells incubated for 48 hrs by sulforhodamine B assay; conditions: COLO 205, 48 h
MDA-MB-231 = assay: Growth inhibition of human MDA-MB-231 cells assessed as cell growth at 10 uM incubated for 48 hrs by sulforhodamine B assay relative to control; conditions: MDA-MB-231, 48 h, read-out: Activity
A498 = assay: Growth inhibition of human A498 cells assessed as cell growth at 10 uM incubated for 48 hrs by sulforhodamine B assay relative to control; conditions: A498, 48 h, read-out: Activity
SNB-19 = assay: Growth inhibition of human SNB19 cells assessed as cell growth at 10 uM incubated for 48 hrs by sulforhodamine B assay relative to control; conditions: SNB-19, 48 h, read-out: Activity
IGROV-1 = assay: Growth inhibition of human IGROV1 cells assessed as cell growth at 10 uM incubated for 48 hrs by sulforhodamine B assay relative to control; conditions: IGROV-1, 48 h, read-out: Activity
Malme-3M = assay: Growth inhibition of human MALME-3M cells assessed as cell growth at 10 uM incubated for 48 hrs by sulforhodamine B assay relative to control; conditions: read-out: Activity
MCF7 = assay: Growth inhibition of human MCF7 cells incubated for 48 hrs by sulforhodamine B assay; conditions: MCF7, 48 h
NCI-H522 = assay: Growth inhibition of human NCI-H522 cells assessed as cell growth at 10 uM incubated for 48 hrs by sulforhodamine B assay relative to control; conditions: NCI-H522, 48 h, read-out: Activity
NCI-H226 = assay: Growth inhibition of human NCI-H226 cells assessed as cell growth at 10 uM incubated for 48 hrs by sulforhodamine B assay relative to control; conditions: NCI-H226, 48 h, read-out: Activity
KM12 [7] = assay: Growth inhibition of human KM12 cells assessed as cell growth at 10 uM incubated for 48 hrs by sulforhodamine B assay relative to control; conditions: KM12, 48 h, read-out: Activity
RXF 393 [8] = assay: Growth inhibition of human RXF393 cells incubated for 48 hrs by sulforhodamine B assay; conditions: RXF 393, 48 h
SK-MEL-5 = assay: Growth inhibition of human SK-MEL-5 cells assessed as cell growth at 10 uM incubated for 48 hrs by sulforhodamine B assay relative to control; conditions: SK-MEL-5, 48 h, read-out: Activity
K562 = assay: Growth inhibition of human K562 cells assessed as cell growth at 10 uM incubated for 48 hrs by sulforhodamine B assay relative to control; conditions: K562, 48 h, read-out: Activity
[9] = read-out: LC50 (the source's name)

Compound `COc1cc2cc(Oc3ccc(NC(=O)Nc4ccc(Cl)c(Cl)c4)cc3)c(C)nc2cc1OC` has a growth at 10 µM (RXF 393 [1]) of 22.3%, a growth at 10 µM (CCRF-CEM) of 13.3% and a GI50 (NCI-H322M) of 8.66 µM. It also gave a TGI (NCI-H322M) of 60.3 µM, a CC50 (NCI-H322M; [9]) greater than 100 µM and a growth at 10 µM (RPMI-8226) of 4.2%. For the same compound, the growth at 10 µM (PC-3) was 4.12%, the GI50 (SR) was 3.1 µM and the TGI (SR) was 10.3 µM. It also gave a CC50 (SR; [9]) greater than 100 µM, a growth at 10 µM (SW-620) of 23.4% and a GI50 (UACC-62 [2]) of 3.33 µM. It also gave a TGI (UACC-62 [2]) of 19.2 µM, a CC50 (UACC-62 [2]; [9]) of 71.2 µM and a growth at 10 µM (SF-295) of 0.69%. For the same compound, the growth at 10 µM (LOX IMVI) was 23.1%, the growth at 10 µM (UACC-62 [3]) was 20.4% and the growth at 10 µM (ACHN) was 16.4%. It also gave a growth at 10 µM (MDA-MB-468) of -16.7%, a GI50 (EKVX [4]) of 2.36 µM and an LC50 (concentration killing 50% of cells) (EKVX [4]) greater than 100 µM. The TGI (EKVX [4]) was 9.51 µM, the growth at 10 µM (HT-29) was 10.9% and the growth at 10 µM (HOP-62) was 55.2%. For the same compound, the growth at 10 µM (M14) was 25.8%, the GI50 (KM12 [5]) was 3.22 µM and the TGI (KM12 [5]) was 13.4 µM. The CC50 (KM12 [5]; [9]) was 74.7 µM, the growth at 10 µM (UO-31) was 3.69% and the growth at 10 µM (EKVX [6]) was 21%. For the same compound, the GI50 (COLO 205) was 2.75 µM, the TGI (COLO 205) was 6.5 µM and the CC50 (COLO 205; [9]) was 21.5 µM. The growth at 10 µM (MDA-MB-231) was 47.8%, the growth at 10 µM (A498) was 35.8% and the growth at 10 µM (SNB-19) was 28.6%. The growth at 10 µM (IGROV-1) was 18.6%, the growth at 10 µM (Malme-3M) was 14.9% and the GI50 (MCF7) was 2.89 µM. The TGI (MCF7) was 13.8 µM, the CC50 (MCF7; [9]) was greater than 100 µM and the growth at 10 µM (NCI-H522) was -13.8%. It also gave a growth at 10 µM (NCI-H226) of 7.74%, a growth at 10 µM (KM12 [7]) of 13.9% and a GI50 (RXF 393 [8]) of 4.28 µM. The TGI (RXF 393 [8]) was 16.7 µM, the CC50 (RXF 393 [8]; [9]) was 65.7 µM and the growth at 10 µM (SK-MEL-5) was -35%. It also gave a growth at 10 µM (K562) of 12.7%.
Work on `COc1cc2cc(Oc3ccc(NC(=O)Nc4ccc(C)cc4)cc3)c(C)nc2cc1OC` yielded a growth at 10 µM (RXF 393 [1]) of 82.1%, a growth at 10 µM (CCRF-CEM) of 101% and a growth at 10 µM (RPMI-8226) of 101%. It also gave a growth at 10 µM (PC-3) of 94.5%, a growth at 10 µM (SW-620) of 107% and a growth at 10 µM (SF-295) of 107%. For the same compound, the growth at 10 µM (LOX IMVI) was 102%, the growth at 10 µM (UACC-62 [3]) was 99.3% and the growth at 10 µM (ACHN) was 103%. The growth at 10 µM (MDA-MB-468) was 97.1%, the growth at 10 µM (HT-29) was 115% and the growth at 10 µM (HOP-62) was 66.9%. The growth at 10 µM (M14) was 124%, the growth at 10 µM (UO-31) was 89.2% and the growth at 10 µM (EKVX [6]) was 107%. It also gave a growth at 10 µM (MDA-MB-231) of 85.6%, a growth at 10 µM (A498) of 116% and a growth at 10 µM (SNB-19) of 97.1%. The growth at 10 µM (IGROV-1) was 101%, the growth at 10 µM (Malme-3M) was 94.6% and the growth at 10 µM (NCI-H522) was 69.9%. For the same compound, the growth at 10 µM (NCI-H226) was 102%, the growth at 10 µM (KM12 [7]) was 104% and the growth at 10 µM (SK-MEL-5) was 100%. It also gave a growth at 10 µM (K562) of 90.8%.
`COc1cc2cc(Oc3ccc(NC(=O)Nc4ccc(C(F)(F)F)cc4)cc3)c(C)nc2cc1OC` gave a growth at 10 µM (RXF 393 [1]) of 6.29%, a growth at 10 µM (CCRF-CEM) of 68.5% and a growth at 10 µM (RPMI-8226) of 52.7%. It also gave a growth at 10 µM (PC-3) of 48.3%, a growth at 10 µM (SW-620) of 75.3% and a growth at 10 µM (SF-295) of 56%. It also gave a growth at 10 µM (LOX IMVI) of 56.4%, a growth at 10 µM (UACC-62 [3]) of 69.2% and a growth at 10 µM (ACHN) of 56.1%. The growth at 10 µM (MDA-MB-468) was 40.1%, the growth at 10 µM (HT-29) was 44.6% and the growth at 10 µM (HOP-62) was 18.8%. It also gave a growth at 10 µM (M14) of 95.2%, a growth at 10 µM (UO-31) of 87.6% and a growth at 10 µM (EKVX [6]) of 75.7%. It also gave a growth at 10 µM (MDA-MB-231) of 80.9%, a growth at 10 µM (A498) of 90.5% and a growth at 10 µM (SNB-19) of 93.5%. For the same compound, the growth at 10 µM (IGROV-1) was 71.9%, the growth at 10 µM (Malme-3M) was 82.9% and the growth at 10 µM (NCI-H522) was 63.2%. For the same compound, the growth at 10 µM (NCI-H226) was 20.9%, the growth at 10 µM (KM12 [7]) was 64.4% and the growth at 10 µM (SK-MEL-5) was 47.4%. It also gave a growth at 10 µM (K562) of 57.1%.
